Key:
Format in all cases: in vivo
[1] = system: southern armyworm (Spodopetra eridania Cramer); assay: Mite/insect screen, SAW; conditions: Spodoptera eridania, percent mortality, SAW, read-out: SAW RESULTS %; for mortality at 200 ppm: SM & MA RATE 200 PPM; for mortality at 400 ppm: SM & MA RATE 400 PPM
In short: (§1)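 Percent mortality was scored after standard exposure periods, following spraying of leaves to runoff (both surfaces, 10 psi, 1 h drying) with water dilutions of compound in emulsifier-containing acetone/alcohol (50:50). Armyworms received excised treated leaves in dishes.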

[2] = system: Twospotted spider mites (Tetranychus urticae Koch); assay: Mite/insect screen, SM; conditions: for mortality at 200 ppm / mortality at 400 ppm: Tetranychus urticae, percent mortality, SAW, read-out: SM RESULTS %; for mortality at 200 ppm: SM & MA RATE 200 PPM; for mortality at 400 ppm: SM & MA RATE 400 PPM
In short: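 Read-out: percent mortality after standard exposure periods. Test solutions were water dilutions of compound dissolved in acetone/alcohol (50:50) with emulsifier blends; leaves were sprayed to runoff on both surfaces and air-dried for one hour before exposure.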

[3] = system: Pyricularia oryzae (rice blast); assay: whole plant or invertebrate; conditions: disease control rating, foliar spray on rice, 400 ppm (+++ at 100 ppm)
[4] = system: Erysiphe graminis tritici (powdery mildew); assay: Test 1 greenhouse foliar spray screen, powdery mildew on wheat; conditions: disease control rating, foliar spray on wheat, 400 ppm (+++ at 100 ppm)
[5] = system: Botrytis cinerea (gray mold); assay: Test 1 greenhouse foliar spray screen, gray mold on grape berries; conditions: disease control rating, spray on grape berries, 400 ppm (+++ at 100 ppm)
[6] = system: Septoria tritici (leaf blotch); assay: Test 1 greenhouse foliar spray screen, leaf blotch on wheat; conditions: disease control rating, foliar spray on wheat, 400 ppm (+++ at 100 ppm)
[7] = system: Venturia inaequalis (apple scab); assay: Test 1 greenhouse foliar spray screen, apple scab on apple seedling; conditions: disease control rating, foliar spray on apple seedling, 400 ppm (+++ at 100 ppm)
[8] = system: Cercospora beticola (leaf spot); assay: Test 1 greenhouse foliar spray screen, leaf spot on sugar beet; conditions: disease control rating, foliar spray on sugar beet, 400 ppm (+++ at 100 ppm)
[9] = system: melon aphids (Aphis gossypii Glover); assay: Mite/insect screen, MA; conditions: Aphis gossypii, percent mortality, SAW, read-out: MA RESULTS %; for mortality at 200 ppm: SM & MA RATE 200 PPM; for mortality at 400 ppm: SM & MA RATE 400 PPM
In short: as §1

[10] = system: Puccinia recondita tritici (leaf rust); assay: Test 1 greenhouse foliar spray screen, leaf rust on wheat; conditions: disease control rating, foliar spray on wheat, 400 ppm (+++ at 100 ppm)
[11] = system: Pseudoperonospora cubensis (downy mildew); assay: Test 1 greenhouse foliar spray screen, downy mildew on squash; conditions: disease control rating, foliar spray on squash, 400 ppm (+++ at 100 ppm)
[12] = system: corn rootworm; assay: Mite/insect screen, CRW; conditions: percent mortality, read-out: CRW RESULTS %; for mortality at 12 ppm: CRW RATE 12.00 PPM; for mortality at 24 ppm: CRW RATE 24.00 PPM
In short: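 Corn rootworm mortality (%) was evaluated following standard exposure times. Test material was emulsified by dissolution in acetone/alcohol (1:1) containing sulfonate/nonionic emulsifier blends TOXIMUL R (23 g/L) and TOXIMUL S (13 g/L), and water-diluted to the indicated doses.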

Row | SMILES | mortality at 200 ppm [1] | mortality at 200 ppm [2] | RICE BLAST [3] | POWD MDEW [4] | GRAY MOLD [5] | LEAF BLOT [6] | APPL SCAB [7] | LEAF SPOT [8] | mortality at 200 ppm [9] | LEAF RUST [10] | DOWN MDEW [11] | mortality at 12 ppm [12] | mortality at 400 ppm [1] | mortality at 400 ppm [2] | mortality at 400 ppm [9] | mortality at 24 ppm [12] | activity as miticides ([2]; summary statement in the description)
1 | CCC(CNc1ccnc2c(F)cccc12)c1ccccc1 (stereo not shown) [Example 81, 8-fluoro-N-(2-phenylbutyl)-4-quinolinamine] | 0% | 0% | ++ (90-100% control at 400 ppm) | + (20-89% control at 400 ppm) | - (0-19% control at 400 ppm) | - (0-19% control at 400 ppm) | - (0-19% control at 400 ppm) | + (20-89% control at 400 ppm) | 0% | ++ (90-100% control at 400 ppm) | +++ (90-100% control at 100 ppm) | 0% | – | – | – | – | –
2 | Fc1cccc2c(NCCc3ccccc3Cl)ccnc12 [Example 82, N-[2-(2-chlorophenyl)ethyl]-8-fluoro-4-quinolinamine] | 0% | 0% | +++ (90-100% control at 100 ppm) | + (20-89% control at 400 ppm) | - (0-19% control at 400 ppm) | +++ (90-100% control at 100 ppm) | - (0-19% control at 400 ppm) | + (20-89% control at 400 ppm) | 0% | +++ (90-100% control at 100 ppm) | +++ (90-100% control at 100 ppm) | 0% | – | – | – | – | –
3 | Fc1cccc2c(NCCc3ccc(C(F)(F)F)cc3)ccnc12 [Example 83, 8-fluoro-N-[2-[4-(trifluoromethyl)phenyl]ethyl]-4-quinolinamine] | 0% | 0% | ++ (90-100% control at 400 ppm) | + (20-89% control at 400 ppm) | +++ (90-100% control at 100 ppm) | - (0-19% control at 400 ppm) | - (0-19% control at 400 ppm) | + (20-89% control at 400 ppm) | 0% | +++ (90-100% control at 100 ppm) | ++ (90-100% control at 400 ppm) | 0% | – | – | – | – | –
4 | COc1ccc(CCNc2ccnc3cc(Cl)ccc23)cc1 [Example 84, 7-chloro-N-[2-(4-methoxyphenyl)ethyl]-4-quinolinamine] | 10% | 0% | ++ (90-100% control at 400 ppm) | +++ (90-100% control at 100 ppm) | - (0-19% control at 400 ppm) | - (0-19% control at 400 ppm) | - (0-19% control at 400 ppm) | + (20-89% control at 400 ppm) | 0% | ++ (90-100% control at 400 ppm) | ++ (90-100% control at 400 ppm) | 0% | 0% | 0% | 0% | 0% | –
5 | Cc1ccc(CCNc2ccnc3c(Cl)cccc23)cc1 [Example 87, 8-chloro-N-[2-(4-methylphenyl)ethyl]-4-quinolinamine] | 0% | 0% | - (0-19% control at 400 ppm) | - (0-19% control at 400 ppm) | - (0-19% control at 400 ppm) | - (0-19% control at 400 ppm) | - (0-19% control at 400 ppm) | - (0-19% control at 400 ppm) | 0% | + (20-89% control at 400 ppm) | +++ (90-100% control at 100 ppm) | 0% | 0% | 0% | 0% | 0% | –
6 | Cc1ccc2c(NCCc3ccc(Cl)cc3)ccnc2c1C [Example 88, N-[2-(4-chlorophenyl)ethyl]-7,8-dimethyl-4-quinolinamine] | 0% | 0% | - (0-19% control at 400 ppm) | - (0-19% control at 400 ppm) | - (0-19% control at 400 ppm) | - (0-19% control at 400 ppm) | - (0-19% control at 400 ppm) | + (20-89% control at 400 ppm) | 0% | ++ (90-100% control at 400 ppm) | ++ (90-100% control at 400 ppm) | 0% | 0% | 0% | 0% | 0% | –
7 | Fc1cccc2c(NCCc3ccccc3)c(Br)cnc12 [Example 91, 3-bromo-8-fluoro-N-(2-phenylethyl)-4-quinolinamine] | 0% | 0% | + (20-89% control at 400 ppm) | + (20-89% control at 400 ppm) | - (0-19% control at 400 ppm) | - (0-19% control at 400 ppm) | - (0-19% control at 400 ppm) | - (0-19% control at 400 ppm) | 0% | - (0-19% control at 400 ppm) | ++ (90-100% control at 400 ppm) | 0% | – | – | – | – | –
8 | CC(Cc1ccccc1)Nc1ccnc2c(F)cccc12 (stereo not shown) [Example 92, 8-fluoro-H-(1-methyl-2-phenylethyl)-4-quinolinamine] | 0% | 0% | ++ (90-100% control at 400 ppm) | + (20-89% control at 400 ppm) | - (0-19% control at 400 ppm) | +++ (90-100% control at 100 ppm) | - (0-19% control at 400 ppm) | + (20-89% control at 400 ppm) | 0% | +++ (90-100% control at 100 ppm) | ++ (90-100% control at 400 ppm) | 0% | – | – | – | – | –
9 | Clc1cc(NCCc2ccccc2)c2cccc(Cl)c2n1 [Example 93, 2,8-dichloro-N-(2-phenylethyl)-4-quinolinamine] | 0% | 0% | - (0-19% control at 400 ppm) | - (0-19% control at 400 ppm) | - (0-19% control at 400 ppm) | + (20-89% control at 400 ppm) | - (0-19% control at 400 ppm) | + (20-89% control at 400 ppm) | 0% | - (0-19% control at 400 ppm) | - (0-19% control at 400 ppm) | 0% | – | – | – | – | –
10 | Fc1cccc2c(NCCc3ccc(Br)cc3)ccnc12 [Example 94, N-[2-(4-bromophenyl)ethyl]-8-fluoro-4-quinolinamine] | 0% | 0% | +++ (90-100% control at 100 ppm) | + (20-89% control at 400 ppm) | - (0-19% control at 400 ppm) | + (20-89% control at 400 ppm) | - (0-19% control at 400 ppm) | +++ (90-100% control at 100 ppm) | 0% | +++ (90-100% control at 100 ppm) | +++ (90-100% control at 100 ppm) | 100% | – | – | – | – | particularly excellent activity

Source: EP0326331B1, “Substituted quinolines and cinnolines” (Dow AgroSciences LLC, priority 1988, dated 1989)
